Source: paper PMC9911596 (Nature Communications, 2023)

Target: T1, Vtc1/Vtc3/Vtc4 complex (VTC complex) (Saccharomyces cerevisiae, UniProt P47075+Q02725, P47075:K129A/P47075:K132A/P47075:K136A)
T1 construct: full-length subunits co-expressed in Expi293F; Vtc1 C-terminal HA, Vtc3 N-terminal 3xFlag, Vtc4 C-terminal 2xStrep; detergent-purified; 3:1:1 pentamer; with Vacuolar transporter chaperone complex subunit 1
T1 sequence (P47075 1-721 K129A/K132A/K136A): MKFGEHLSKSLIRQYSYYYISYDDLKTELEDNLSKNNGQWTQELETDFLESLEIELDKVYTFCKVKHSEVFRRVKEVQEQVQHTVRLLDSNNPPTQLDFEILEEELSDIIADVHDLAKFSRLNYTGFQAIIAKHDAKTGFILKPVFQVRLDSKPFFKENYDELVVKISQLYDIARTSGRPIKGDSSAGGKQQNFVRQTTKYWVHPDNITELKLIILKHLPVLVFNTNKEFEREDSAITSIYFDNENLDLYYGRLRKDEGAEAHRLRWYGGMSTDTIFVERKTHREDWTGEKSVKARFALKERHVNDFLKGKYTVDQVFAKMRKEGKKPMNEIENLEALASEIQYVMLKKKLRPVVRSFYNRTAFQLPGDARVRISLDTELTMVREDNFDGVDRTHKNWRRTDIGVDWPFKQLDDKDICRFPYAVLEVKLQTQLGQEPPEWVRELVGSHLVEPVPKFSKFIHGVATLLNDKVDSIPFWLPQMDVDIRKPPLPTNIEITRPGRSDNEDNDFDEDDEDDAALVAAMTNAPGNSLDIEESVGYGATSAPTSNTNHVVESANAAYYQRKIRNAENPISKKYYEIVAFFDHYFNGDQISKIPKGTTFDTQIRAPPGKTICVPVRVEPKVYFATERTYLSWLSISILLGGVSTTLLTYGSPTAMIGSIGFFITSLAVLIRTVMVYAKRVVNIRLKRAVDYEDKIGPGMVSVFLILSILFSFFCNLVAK
T1 sequence (Q02725 1-835): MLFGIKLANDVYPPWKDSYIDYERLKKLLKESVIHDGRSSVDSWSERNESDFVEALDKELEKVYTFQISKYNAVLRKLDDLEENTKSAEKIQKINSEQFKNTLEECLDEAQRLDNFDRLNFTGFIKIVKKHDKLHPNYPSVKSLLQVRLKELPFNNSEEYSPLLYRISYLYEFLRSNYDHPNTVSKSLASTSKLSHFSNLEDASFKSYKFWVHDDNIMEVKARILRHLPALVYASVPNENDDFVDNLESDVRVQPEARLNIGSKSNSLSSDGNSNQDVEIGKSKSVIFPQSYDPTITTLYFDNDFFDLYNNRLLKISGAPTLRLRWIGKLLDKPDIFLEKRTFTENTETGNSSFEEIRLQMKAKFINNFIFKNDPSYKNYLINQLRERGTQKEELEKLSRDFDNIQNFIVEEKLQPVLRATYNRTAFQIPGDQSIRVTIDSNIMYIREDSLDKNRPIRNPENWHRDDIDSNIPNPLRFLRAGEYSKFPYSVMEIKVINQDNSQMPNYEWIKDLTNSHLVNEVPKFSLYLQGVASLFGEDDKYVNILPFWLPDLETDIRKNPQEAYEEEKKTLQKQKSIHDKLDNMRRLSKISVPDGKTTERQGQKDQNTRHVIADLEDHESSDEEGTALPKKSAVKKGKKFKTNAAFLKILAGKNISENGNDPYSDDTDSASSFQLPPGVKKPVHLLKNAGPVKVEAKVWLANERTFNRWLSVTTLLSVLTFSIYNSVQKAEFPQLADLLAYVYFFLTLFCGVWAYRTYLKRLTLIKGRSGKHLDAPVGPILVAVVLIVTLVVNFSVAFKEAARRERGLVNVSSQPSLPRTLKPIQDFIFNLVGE
T1 sequence (P40046 2-129 partner): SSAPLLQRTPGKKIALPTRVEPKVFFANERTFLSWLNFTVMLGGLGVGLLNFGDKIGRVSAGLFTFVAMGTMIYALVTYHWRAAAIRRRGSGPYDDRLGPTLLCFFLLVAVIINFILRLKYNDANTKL
Experiment: polyP synthesis, TBE-PAGE
Type: biochemical
Conditions: activator; 15 mM ATP, 10 mM MgCl2, 1 mM MnCl2, 0.5 mM pyrophosphate, 27 °C, 4 h; SPX KSC mutant

O=P(O)(O)O[C@H]1[C@H](OP(=O)(O)O)[C@@H](OP(=O)(O)O)[C@H](OP(=O)(O)O)[C@@H](OP(=O)(O)O)[C@H]1OP(=O)(O)O [InsP6]
polyP synthesis, TBE-PAGE: both reduced InsP6-stimulated polyP synthesis
